pIC50, pKd, pKi: −log10 of the molar value. Starred links: 1 amine or outer side, 2 acyl side, 3 side chain; linkers in the order of their positions; H or OH if unused. Positions of bridges follow the written chain, without caps; N, C: chain ends. Non-standard residues stand in square brackets, D forms with d. Residues, ends and D or L forms follow the SMILES beside them. X1 = [N-]=[N+]=Nc1ccc(C[C@H](N[*:1])C(=O)[*:2])cc1I; X2 = O=C(CC1(S[*:2])CCCCC1)[*:1]; Orn = NCCC[C@H](N)C(=O)O
Tests used:
Oxytocin receptor [1] = molecular target: T1, Oxytocin receptor (Homo sapiens, UniProt P30559); test: Binding affinity towards OT receptor in CHO cells expressing the human OT receptor; type: cell-based
T1 sequence (P30559 whole entry): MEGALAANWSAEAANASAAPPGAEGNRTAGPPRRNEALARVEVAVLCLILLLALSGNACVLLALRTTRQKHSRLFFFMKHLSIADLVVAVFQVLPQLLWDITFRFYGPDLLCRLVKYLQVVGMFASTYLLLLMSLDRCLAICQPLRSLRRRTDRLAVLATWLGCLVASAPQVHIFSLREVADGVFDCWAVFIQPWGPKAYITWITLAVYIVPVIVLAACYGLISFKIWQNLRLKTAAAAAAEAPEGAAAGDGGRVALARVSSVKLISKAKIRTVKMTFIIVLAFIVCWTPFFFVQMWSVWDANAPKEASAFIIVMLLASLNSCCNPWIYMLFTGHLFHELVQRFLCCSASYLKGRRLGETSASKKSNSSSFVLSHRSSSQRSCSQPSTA

Oxytocin receptor [2] = molecular target: T1, Oxytocin receptor; test: Dissociation constant value for human OT-receptor
Oxytocin receptor [3] = molecular target: T1, Oxytocin receptor; test: Ability to inhibit OT-induced inositol phosphate accumulation was determined in CHO cells expressing the human OT receptor; type: functional, cell-based

pKi (Oxytocin receptor [1]; cho) | pKd (Oxytocin receptor [2]) | pIC50 (Oxytocin receptor [3]) | pKi (Oxytocin receptor [1]) | Compound
7.74 | – | – | – | CC[C@H](C)[C@@H]1NC(=O)[C@H](Cc2ccc(O)cc2)NC(=O)CC2(CCCCC2)SSC[C@@H](C(=O)NCC(=O)N[C@@H](CCCN)C(=O)N[C@@H](Cc2ccc(N=[N+]=[N-])c(I)c2)C(N)=O)NC(=O)[C@H](CC(N)=O)NC(=O)[C@H]([C@@H](C)O)NC1=O (YITNCG[Orn][X1]-NH2; linker N-5 via X2)
9.52 | 9.60 | 9.49 | – | CC[C@H](C)[C@@H]1NC(=O)[C@H](Cc2ccc(OC)cc2)NC(=O)CC2(CCCCC2)SSC[C@@H](C(=O)N2CCC[C@H]2C(=O)N[C@@H](CCCN)C(=O)N[C@@H](Cc2ccc(N=[N+]=[N-])c(I)c2)C(N)=O)NC(=O)[C@H](CC(N)=O)NC(=O)[C@H]([C@@H](C)O)NC1=O (Y(Me)ITNCP[Orn][X1]-NH2; linker N-5 via X2)
– | – | – | 9.22 | CC[C@H](C)[C@@H]1NC(=O)[C@H](Cc2ccc(O)cc2)NC(=O)CC2(CCCCC2)SSC[C@@H](C(=O)N2CCC[C@H]2C(=O)N[C@@H](CCCN)C(=O)N[C@@H](Cc2ccc(N=[N+]=[N-])c(I)c2)C(N)=O)NC(=O)[C@H](CC(N)=O)NC(=O)[C@H]([C@@H](C)O)NC1=O (YITNCP[Orn][X1]-NH2; linker N-5 via X2)
8.64 | – | – | – | CC[C@H](C)[C@@H]1NC(=O)[C@H](Cc2ccc(OC)cc2)NC(=O)CC2(CCCCC2)SSC[C@@H](C(=O)NCC(=O)N[C@@H](CCCN)C(=O)N[C@@H](Cc2ccc(N=[N+]=[N-])c(I)c2)C(N)=O)NC(=O)[C@H](CC(N)=O)NC(=O)[C@H]([C@@H](C)O)NC1=O (Y(Me)ITNCG[Orn][X1]-NH2; linker N-5 via X2)

— ChEMBL document CHEMBL1134456, “Design, synthesis and pharmacological characterization of a potent radioiodinated and photoactivatable peptidic oxytocin antagonist” (J Med Chem, 2001)
